Laboratory results as given in patent US20220119460A1, “Means and Methods to Overrule Glucose-Mediated Repression of Respiration in Yeast” (priority 2019, published 2022).

Tests used:
[1] = system: S. cerevisiae strain AN63; test: Growth rate in stable sugar conditions (5% galactose) with antimycin A; format: cell-based; conditions: 41 respiratory deletion mutants, compared with slowest growing mutants without the compound (FIG. 2D)
Method: (§1) All population growth measurements were performed using Bioscreen C machines (Growth Curves USA). For the gradual shift experiments, cells were inoculated in a 96-well plate containing YP plus 5% glucose (high-glucose [HG]) medium and serially diluted for growth overnight at 30° C. shaking at 900 rpm. Cultures at an OD600 of 0.1 were transferred to a new plate and serially diluted in fresh HG medium for growth overnight. The next day, cultures at an OD600 of 0.1 were washed three times into YP plus 0.5% glucose (low glucose [LG]) plus the appropriate carbohydrate source, with or without 3 μg/ml of antimycin A, and diluted so that the initial cell concentration for the Bioscreen C measurements was 10^5 cells/ml. OD600 measurements were taken every 15 min for 7 days or until the cultures reached stationary phase.
The same procedure was followed for the stationary growth experiments, replacing the HG medium from pregrowth and the final growth medium with 5% galactose. […]
(§2) The growth rate was then obtained by calculating the discrete derivative of In(OD600,me) versus time. […] In the case of two exponential phases in the growth curve (i.e., conditions with a mix of carbon sources in the medium), the maximum growth rate for each phase (maxR1, maxR2) was detected. Once these parameters were determined, the lag time was calculated by the time difference between two time points: the start and the end. […]

[2] = system: S. cerevisiae strain AN63; test: Population growth lag time measurement, gradual glucose-to-galactose shift with antimycin A; format: cell-based; conditions: 3 μg/ml antimycin A in medium; 0.5% glucose plus 5% galactose; wild type and 41 respiratory deletion mutants (FIG. 2B)
Method: Population Growth Lag Time Measurements (Antimycin a Treatment and Glucose-to-Galactose Shift).
as §1, with “OD600 measurements were taken every 15 min for 7 days or until the cultures reached stationary phase.” left out
where the cx subscript stands for corrected and the me subscript stands for measured.
as §2

For antimycin A, the “growth rate in the presence of antimycin A” value [1] was “equally low growth rates” and the “prolongation of the lag times” value [2] was “up to 2.2 fold”.
